This experiment concerns the target Human recombinant LSD1 protein (Homo sapiens (Human), UniProt O60341). The experiment in a line: LSD1 enzymatic activity, AlphaLISA demethylation assay. The class given is biochemical. As to conditions: 4 nM LSD1, 80 nM Biotin-H3K4Me peptide substrate, 1% DMSO, 60 minutes reaction. The procedure: Human recombinant LSD1 protein expressed in E. coli cells was purchased from Active Motif (Carlsbad, Calif.). Biotin-labeled Histone H3K4Me peptide (residues 1-21 with Lys 4 monomethylated) substrate was purchased from Anaspec (Fremont, Calif.). Enzymatic activity was assessed using the AlphaLISA technology from Perkin Elmer Life Sciences (Waltham, Mass.). 2.5 μL of compound solution and 5 μL of LSD1 solutions in the assay buffer (50 mM Tris, pH 9.0, 50 mM NaCl with 0.01% Tween20 and 1 mM DTT added right before the assay) were added into a white low volume 384 well microtiter plate. This mixture solution was incubated for 15 minutes with gentle shaking at room temperature. Demethylation reaction was initiated by adding 2.5 μL of Biotin-H3K4Me peptide substrate solution in the assay buffer. Final concentrations of LSD1, Biotin-H3K4Me peptide substrate, and DMSO were 4 nM, 80 nM, and 1%, respectively. The reaction was allowed to proceed for 60 minutes in dark with gentle shaking at room temperature, after which 5 μL of Anti-H3K4 AlphaLISA acceptor beads in detection buffer from the manufacturer was added into the reaction mixture followed by incubation for 60 minutes. 10 μL of Streptavidin labeled AlphaLISA donor beads in detection buffer was added into the mixture followed by 30-minute incubation. Final acceptor and donor beads concentrations were both at 10 μg/mL. Plates were read on a BMG CLARIOStar multimode plate reader from BMG Labtech (Ortenberg, Germany) with an excitation wavelength of 680 nm and emission wavelength of 615 nm. IC50 values of inhibitors were obtained by fitting the fluorescence intensity vs inhibitor concentrations in a sigmoidal dose-response curve (variable slope) with a non-linear regression using Prism 7 (La Jolla, Calif.).
(In general: Alpha assays give light when donor and acceptor beads are brought close together.)

On to `CN1CCOc2cc(-c3ncc4c(ncn4C[C@H]4CCNC4)c3-c3ccc(C#N)c(F)c3)ccc21` [compound 17, (S)-2-fluoro-4-(6-(4-methyl-3,4-dihydro-2H-benzo[b][1,4]oxazin-7-yl)-3-(pyrrolidin-3-ylmethyl)-3H-imidazo[4,5-c]pyridin-7-yl)benzonitrile], for which the IC50 (usually the concentration that gives 50% inhibition) was 12.1 nM. For the molecule `CN1CCC(Cn2cnc3c(-c4ccc(C#N)cc4)c(-c4ccc5c(cnn5C)c4)ncc32)CC1` [compound 6, 4-(6-(1-methyl-1H-indazol-5-yl)-3-((1-methylpiperidin-4-yl)methyl)-3H-imidazo[4,5-c]pyridin-7-yl)benzonitrile], the 50% inhibitory concentration (IC50) was found to be 66.3 nM. For `Cn1ncc2cc(-c3ncc4c(ncn4CC4CCNCC4)c3-c3ccc(C#N)c(F)c3)ccc21` [Cpd. No. 19, 2-fluoro-4-(6-(1-methyl-1H-indazol-5-yl)-3-(piperidin-4-ylmethyl)-3H-imidazo[4,5-c]pyridin-7-yl)benzonitrile], the IC50 was 11.8 nM.

For the molecule `Cn1ccc2cc(-c3ncc4c(ncn4C[C@H]4CCNC4)c3-c3ccc(C#N)c(F)c3)cnc21` [compound 27, (S)-2-fluoro-4-(6-(1-methyl-1H-pyrrolo[2,3-b]pyridin-5-yl)-3-(pyrrolidin-3-ylmethyl)-3H-imidazo[4,5-c]pyridin-7-yl)benzonitrile], the IC50 turned out to be 53.3 nM.

As for `CN1CCOc2cc(-c3ncc4c(ncn4CC4CCNCC4)c3-c3ccc(C#N)c(F)c3)ccc21` [compound 25, 2-fluoro-4-(6-(4-methyl-3,4-dihydro-2H-benzo[b][1,4]oxazin-7-yl)-3-(piperidin-4-ylmethyl)-3H-imidazo[4,5-c]pyridin-7-yl)benzonitrile], the IC50 was 8.01 nM. In the case of `CN1CCC(Cn2cnc3c(-c4ccc(C#N)cc4)c(-c4ccc(C#N)cc4)ncc32)CC1` [compound 9, 4,4′-(3-((1-methylpiperidin-4-yl)methyl)-3H-imidazo[4,5-c]pyridine-6,7-diyl)dibenzonitrile], the IC50 is over 1000 nM. Take `Cn1ncc2cc(-c3ncc4c(ncn4CC4CCCNCC4)c3-c3ccc(C#N)c(F)c3)ccc21` (stereo not drawn) [compound 21, 4-(3-(azepan-4-ylmethyl)-6-(1-methyl-1H-indazol-5-yl)-3H-imidazo[4,5-c]pyridin-7-yl)-2-fluorobenzonitrile]: the concentration for half-maximal inhibition (IC50) was 17.3 nM.

`CN1CCOc2cc(-c3ncc4c(ncn4CC4CCCNCC4)c3-c3ccc(C#N)c(F)c3)ccc21` (stereo not drawn) [compound 23, 4-(3-(azepan-4-ylmethyl)-6-(4-methyl-3,4-dihydro-2H-benzo[b][1,4]oxazin-7-yl)-3H-imidazo[4,5-c]pyridin-7-yl)-2-fluorobenzonitrile]: the IC50 was determined as 13 nM. The result for `Cn1ncc2cc(-c3ncc4c(ncn4C[C@H]4CCNC4)c3-c3ccc(C#N)cc3)ccc21` [compound 30, (S)-4-(6-(1-methyl-1H-indazol-5-yl)-3-(pyrrolidin-3-ylmethyl)-3H-imidazo[4,5-c]pyridin-7-yl)benzonitrile] reads 39.8 nM; that for `CN1CCC(Cn2cnc3c(-c4ccc(C#N)c(F)c4)c(-c4ccc5c(c4)CC(=O)N5C)ncc32)CC1` [compound 3, 2-fluoro-4-(6-(1-methyl-2-oxoindolin-5-yl)-3-((1-methylpiperidin-4-yl)methyl)-3H-imidazo[4,5-c]pyridin-7-yl)benzonitrile], 220 nM; that for `CN1CCOc2ccc(-c3ncc4c(ncn4C[C@H]4CCNC4)c3-c3ccc(C#N)c(F)c3)cc21` [compound 29, (S)-2-fluoro-4-(6-(4-methyl-3,4-dihydro-2H-benzo[b][1,4]oxazin-6-yl)-3-(pyrrolidin-3-ylmethyl)-3H-imidazo[4,5-c]pyridin-7-yl)benzonitrile], 47 nM. Regarding `Cc1nc2cc(-c3ncc4c(ncn4CC4CCN(C)CC4)c3-c3ccc(C#N)c(F)c3)ccc2s1` [compound 5, 2-fluoro-4-(6-(2-methylbenzo[d]thiazol-5-yl)-3-((1-methylpiperidin-4-yl)methyl)-3H-imidazo[4,5-c]pyridin-7-yl)benzonitrile], the IC50 was 928 nM. Consider `Cn1ncc2cc(-c3ncc4c(ncn4CC4CCNCC4)c3-c3ccc(C#N)cc3)ccc21` [compound 20, 4-(6-(1-methyl-1H-indazol-5-yl)-3-(piperidin-4-ylmethyl)-3H-imidazo[4,5-c]pyridin-7-yl)benzonitrile], for which the IC50 was determined as 13.7 nM. For the molecule `CN1CCOc2cc(-c3ncc4c(ncn4CC4CCNC4)c3-c3ccc(C#N)cc3)ccc21` (stereo not drawn) [compound 32, 4-(6-(4-methyl-3,4-dihydro-2H-benzo[b][1,4]oxazin-7-yl)-3-(pyrrolidin-3-ylmethyl)-3H-imidazo[4,5-c]pyridin-7-yl)benzonitrile], the IC50 came to 5.67 nM.

As to `CN1CCC(Cn2cnc3c(-c4ccc(C#N)cc4)c(-c4ccc5c(cnn5C)c4)ncc32)C1` (stereo not drawn) [compound 31, 4-(6-(1-methyl-1H-indazol-5-yl)-3-((1-methylpyrrolidin-3-yl)methyl)-3H-imidazo[4,5-c]pyridin-7-yl)benzonitrile], the IC50 was 87.2 nM. The result for `CN1CCC(Cn2cnc3c(-c4ccc(C#N)c(F)c4)c(-c4ccc5c(ccn5C)c4)ncc32)CC1` [compound 2, 2-fluoro-4-(6-(1-methyl-1H-indol-5-yl)-3-((1-methylpiperidin-4-yl)methyl)-3H-imidazo[4,5-c]pyridin-7-yl)benzonitrile] reads 237 nM; that for `CN1CCC(Cn2cnc3c(-c4ccc(C#N)cc4)c(-c4ccc5nn(C)cc5c4)ncc32)CC1` [compound 13, 4-(6-(2-methyl-2H-indazol-5-yl)-3-((1-methylpiperidin-4-yl)methyl)-3H-imidazo[4,5-c]pyridin-7-yl)benzonitrile], 115 nM; that for `CN1CCC(Cn2cnc3c(-c4ccc(C#N)c(F)c4)c(-c4ccc5nn(C)cc5c4)ncc32)CC1` [compound 12, 2-fluoro-4-(6-(2-methyl-2H-indazol-5-yl)-3-((1-methylpiperidin-4-yl)methyl)-3H-imidazo[4,5-c]pyridin-7-yl)benzonitrile], 97.6 nM. For `Cn1ncc2cc(-c3ncc4c(ncn4CC4CCCNCC4)c3-c3ccc(C#N)cc3)ccc21` (stereo not drawn) [compound 22, 4-(3-(azepan-4-ylmethyl)-6-(1-methyl-1H-indazol-5-yl)-3H-imidazo[4,5-c]pyridin-7-yl)benzonitrile], the IC50 came out at 16.2 nM. `CN1CCC(Cn2cnc3c(-c4ccc(C#N)c(F)c4)c(-c4ccc5c(c4)OCCN5C)ncc32)CC1` [compound 8, 2-fluoro-4-(6-(4-methyl-3,4-dihydro-2H-benzo[b][1,4]oxazin-7-yl)-3-((1-methylpiperidin-4-yl)methyl)-3H-imidazo[4,5-c]pyridin-7-yl)benzonitrile]: the IC50 is 16.2 nM. For the molecule `CN1CCC(Cn2cnc3c(-c4ccc(C#N)cc4)c(-c4ccc5c(c4)OCO5)ncc32)CC1` [compound 14, 4-(6-(benzo[d][1,3]dioxol-5-yl)-3-((1-methylpiperidin-4-yl)methyl)-3H-imidazo[4,5-c]pyridin-7-yl)benzonitrile], the IC50 was determined as 15.7 nM. `CN1CCC(Cn2cnc3c(-c4ccc(C#N)c(F)c4)c(-c4ccc5c(cnn5C)c4)ncc32)CC1` [Cpd. No. 1, 2-fluoro-4-(6-(1-methyl-1H-indazol-5-yl)-3-((1-methylpiperidin-4-yl)methyl)-3H-imidazo[4,5-c]pyridin-7-yl)benzonitrile]: the IC50 was found to be 40.1 nM. On to `CN1CCC(Cn2cnc3c(-c4ccc(C#N)cc4)c(-c4ccc5c(ccn5C)c4)ncc32)CC1` [compound 7, 4-(6-(1-methyl-1H-indol-5-yl)-3-((1-methylpiperidin-4-yl)methyl)-3H-imidazo[4,5-c]pyridin-7-yl)benzonitrile], for which the IC50 came to 68 nM. `CCn1ncc2cc(-c3ncc4c(ncn4CC4CCN(C)CC4)c3-c3ccc(C#N)cc3)ccc21` [compound 11, 4-(6-(1-ethyl-1H-indazol-5-yl)-3-((1-methylpiperidin-4-yl)methyl)-3H-imidazo[4,5-c]pyridin-7-yl)benzonitrile]: the IC50 amounted to 116 nM. Consider `CN1CC[C@H](Cn2cnc3c(-c4ccc(C#N)c(F)c4)c(-c4ccc5c(c4)OCCN5C)ncc32)C1` [compound 18, (S)-2-fluoro-4-(6-(4-methyl-3,4-dihydro-2H-benzo[b][1,4]oxazin-7-yl)-3-((1-methylpyrrolidin-3-yl)methyl)-3H-imidazo[4,5-c]pyridin-7-yl)benzonitrile], for which the IC50 was 12 nM. The result for `CN1CCC(Cn2cnc3c(-c4ccc(C#N)c(F)c4)c(-c4ccc5c(c4)OCO5)ncc32)CC1` [compound 15, 4-(6-(benzo[d][1,3]dioxol-5-yl)-3-((1-methylpiperidin-4-yl)methyl)-3H-imidazo[4,5-c]pyridin-7-yl)-2-fluorobenzonitrile] reads 27.8 nM. For the molecule `N#Cc1ccc(-c2c(-c3ccc4c(c3)OCCO4)ncc3c2ncn3C[C@H]2CCNC2)cc1F` [compound 28, (S)-4-(6-(2,3-dihydrobenzo[b][1,4]dioxin-6-yl)-3-(pyrrolidin-3-ylmethyl)-3H-imidazo[4,5-c]pyridin-7-yl)-2-fluorobenzonitrile], the IC50 came to 9.57 nM.

Values taken from US11944614B2, “Imidazo[4,5-c]pyridine compounds as LSD-1 inhibitors” (THE REGENTS OF THE UNIVERSITY OF MICHIGAN, priority 2018, dated 2024).
